{
  "source": "patent US20110262490A1",
  "about": "“POLYMER-AGENT CONJUGATES, PARTICLES, COMPOSITIONS, AND RELATED METHODS OF USE” (priority 2009, published 2011)",
  "tested_on": "H1299 tumor",
  "assay": "Efficacy and tolerability in non-small cell lung carcinoma model H1299 (Example 60)",
  "settings": "for Tumor growth inhibition (% TGI): 30 mg/kg IV 1/wk×2, 30 mg/kg",
  "key": {"[1]": {"settings": "large tumor group, 30 mg/kg 1/wk×2"}, "[2]": {"settings": "large tumor group, 60 mg/kg 1/wk×2"}, "[3]": {"settings": "small tumor group, 30 mg/kg 1/wk×2"}, "[4]": {"settings": "small tumor group, 60 mg/kg 1/wk×2"}},
  "description": "H1299 cells were grown in culture to 85-90% confluency in RPMI medium supplemented with 10% fetal bovine serum (FBS), 1% glutamine and 1% penicillin/streptomycin. Cells were removed from the culture flask using 0.05% trypsin (passage=4), re-suspended in RPMI medium (density=50×10^6 cells/mL) and were implanted subcutaneously (5×10^6 cells in 100 μL RPMI medium/mouse) into the mammary fat pad area of male nu/nu mice on day 1.\nThe treatments were administered IV into the tail vein at a dose volume of 10 and 20 mL/kg for 30 and 60 mg/kg respectively, beginning on post-implantation day 30 when the mean tumor volume was ca. 170 mm^3 (small tumor group), and on day 37 when the mean tumor volume was ca. 440 mm^3 (large tumor group). Body weight and tumor volume were measured for three times a week during the dosing period and twice a week thereafter. In addition, animals were also monitored for any morbidity and adverse effects for three times a week during the dosing period and twice a week thereafter.\nTumor volume was calculated with (width×width×length)/2 mm^3 formula. Efficacy was determined by tumor growth inhibition (TGI), tumor growth delay (TGD) and survival. Tumor growth inhibition (TGI) is represented as % and calculated as (1−(treated tumor volume/control tumor volume))×100 when the control group mean tumor volume reached ≧1000 mm^3 Tumor growth delay (TGD) is calculated by subtracting the day when the vehicle treated group reached the maximum tumor size 1000 mm^3 from the day when the treatment group tumor size reached 1000 mm^3.",
  "data": [
    {"molecule": "CC(=O)O[C@@]12CO[C@@H]1C[C@H](O)[C@@]1(C)C(=O)[C@H](O)C3=C(C)[C@@H](OC(=O)[C@H](O)[C@@H](NC(=O)OC(C)(C)C)c4ccccc4)C[C@@](O)([C@@H](OC(=O)c4ccccc4)[C@H]21)C3(C)C", "note": "[Free docetaxel, docetaxel]", "values": [
      {"measurement": "Day mean tumor volume endpoint (≧1000 mm^3) reached", "setting": "[1]", "value": 63, "unit": "days"},
      {"measurement": "Day of 0% survival", "setting": "[1]", "value": 80, "unit": "days"},
      {"measurement": "Day of 50% survival", "setting": "[1]", "value": 61, "unit": "days"},
      {"measurement": "Hind limb paralysis", "setting": "[1]", "value": "did not cause any significant body weight loss or hind limb paralysis"},
      {"measurement": "Increase in TGD", "setting": "[1]", "value": 43, "unit": "%"},
      {"measurement": "Maximum body weight loss", "setting": "[1]", "value": 19, "unit": "%"},
      {"measurement": "Tumor growth delay (TGD)", "setting": "[1]", "value": 19, "unit": "days"},
      {"measurement": "Tumor shrinkage", "setting": "[1]", "value": "no tumor shrinkage"},
      {"measurement": "Tumor growth inhibition (% TGI)", "setting": "large tumor group", "value": 49, "unit": "%"},
      {"measurement": "Tumor growth inhibition (% TGI)", "setting": "large tumor group, listed as free docetaxel", "value": 49, "unit": "%"},
      {"measurement": "Hind limb paralysis", "setting": "[2]", "value": "severe hind limb paralysis"},
      {"measurement": "Maximum body weight loss", "setting": "[2]", "value": "significant body weight loss"},
      {"measurement": "Day mean tumor volume endpoint (≧1000 mm^3) reached", "setting": "[3]", "value": 61, "unit": "days"},
      {"measurement": "Day of 0% survival", "setting": "[3]", "value": 68, "unit": "days"},
      {"measurement": "Day of 50% survival", "setting": "[3]", "value": 56, "unit": "days"},
      {"measurement": "Hind limb paralysis", "setting": "[3]", "value": "did not cause any significant body weight loss or hind limb paralysis"},
      {"measurement": "Increase in TGD", "setting": "[3]", "value": 39, "unit": "%"},
      {"measurement": "Maximum body weight loss", "setting": "[3]", "value": 18, "unit": "%"},
      {"measurement": "Tumor growth delay (TGD)", "setting": "[3]", "value": 17, "unit": "days"},
      {"measurement": "Tumor growth inhibition (% TGI)", "setting": "small tumor group", "value": 64, "unit": "%"},
      {"measurement": "Tumor growth inhibition (% TGI)", "setting": "small tumor group, listed as free docetaxel", "value": 64, "unit": "%"},
      {"measurement": "Hind limb paralysis", "setting": "[4]", "value": "severe hind limb paralysis"},
      {"measurement": "Maximum body weight loss", "setting": "[4]", "value": "significant body weight loss"}
    ]}
  ]
}
